Assay [1] concerns α1 norepinephrine receptor. Nature of the assay: α1 norepinephrine receptor binding assay (3H-prazosin, rat cortex membrane). Conditions: for α1 Inhibition rate (%): test compound final concentration 10^−5 M, 3H-prazosin, rat cortex membrane; for affinity with α1 (in words): summary of in vitro assay. An excerpt: Preparation of Receptor Membrane of Norepinephrine
α1 Norepinephrine Receptor Binding Assay

In the next assay the target is T1, 5HT1A receptor (Rattus norvegicus, UniProt P19327).
T1 construct: Rats were decapitated on ice; from tissue; host or cells: rat brain striatum
T1 sequence (P19327 1-422): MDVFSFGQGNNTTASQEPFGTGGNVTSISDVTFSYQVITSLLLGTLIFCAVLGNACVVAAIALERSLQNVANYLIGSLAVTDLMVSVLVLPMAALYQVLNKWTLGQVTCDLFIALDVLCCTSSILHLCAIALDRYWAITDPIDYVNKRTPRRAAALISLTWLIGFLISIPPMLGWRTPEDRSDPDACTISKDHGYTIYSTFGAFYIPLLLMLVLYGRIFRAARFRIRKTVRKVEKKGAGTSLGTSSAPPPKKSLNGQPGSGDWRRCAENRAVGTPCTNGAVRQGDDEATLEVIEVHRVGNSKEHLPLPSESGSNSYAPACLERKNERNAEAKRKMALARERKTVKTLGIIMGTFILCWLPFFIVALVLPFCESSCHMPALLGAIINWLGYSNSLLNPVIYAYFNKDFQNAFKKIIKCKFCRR
Description: 5HT1A receptor binding assay (3H-8-OH-DPAT, rat striatum membrane). As to conditions: for inhibition at 10 µM: test compound final concentration 10^−5 M, 3H-8-OH-DPAT, rat striatum membrane, read-out: 5HT1A Inhibition rate (%); for affinity with 5HT1A (in words): summary of in vitro assay. The method, then:
Preparation of 5HT1A Membrane
Rats were decapitated on ice. […] Incubation at 37° C. was conducted for 10 min. […] Centrifugation was conducted at 12000 rpm, 4° C. for 20 min. […] Centrifugation was conducted and repeated 3 times.
(§1) Materials for the Receptor Binding Assay

The next assay relates to D2 receptor. Description: D2 receptor binding assay (3H-Spiperone, rat striatum membrane). As to conditions: for D2 Inhibition rate (%): test compound final concentration 10^−5 M, 3H-Spiperone, rat striatum membrane; for affinity with D2 (in words): summary of in vitro assay. As for the experimental part:
Preparation of D2 Membrane
Rats were decapitated on ice. […] The weight of the homogenized tubes were adjusted using a balance, and centrifugation was conducted. […] Centrifugation was conducted.
as §1

Another assay addresses Histamine H1 receptor (Rattus norvegicus, UniProt P31390). Description: Histamine H1 receptor binding assay (3H-pyrilamine, rat cerebellum membrane). As to conditions: for inhibition at 10 µM: read-out: H1 Inhibition rate (%); for affinity with H1 (in words): summary of in vitro assay.
Another assay concerns the target T2, 5HT2C receptor (Rattus norvegicus, UniProt P08909).
T2 construct: from tissue; host or cells: rat brain striatum
T2 sequence (P08909 33-460): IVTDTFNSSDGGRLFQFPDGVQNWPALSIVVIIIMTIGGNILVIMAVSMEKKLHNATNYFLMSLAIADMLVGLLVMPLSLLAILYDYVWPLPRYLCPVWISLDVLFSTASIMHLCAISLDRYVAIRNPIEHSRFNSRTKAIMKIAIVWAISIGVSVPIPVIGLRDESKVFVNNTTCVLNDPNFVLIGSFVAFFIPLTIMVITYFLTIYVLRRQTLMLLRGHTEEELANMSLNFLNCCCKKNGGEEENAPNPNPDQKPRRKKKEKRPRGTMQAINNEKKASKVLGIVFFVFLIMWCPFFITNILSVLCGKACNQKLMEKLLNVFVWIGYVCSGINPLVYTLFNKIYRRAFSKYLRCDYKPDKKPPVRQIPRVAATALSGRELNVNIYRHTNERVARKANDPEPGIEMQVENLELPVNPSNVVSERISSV
Description: 5HT2C receptor binding assay ([3H]-mesulergine, rat striatum membrane). As to conditions: for inhibition at 10 µM: test compound final concentration 10^−5 M, [3H]-mesulergine, rat striatum membrane, read-out: 5HT2C Inhibition rate (%); for affinity with 5HT2C (in words): summary of in vitro assay. As for the experimental part: Preparation of 5HT2C Membrane
Rats were decapitated on ice. […] Centrifugation was conducted.
as §1

The target in another assay is 5HT2A receptor (Rattus norvegicus, UniProt P14842). Nature of the assay: 5HT2A receptor binding assay ([3H]-Ketanserin, rat striatum membrane). Conditions: for inhibition at 10 µM: read-out: 5HT2A Inhibition rate (%); for affinity with 5HT2A (in words): summary of in vitro assay.
Sequence of 5HT2A receptor (P14842 whole entry): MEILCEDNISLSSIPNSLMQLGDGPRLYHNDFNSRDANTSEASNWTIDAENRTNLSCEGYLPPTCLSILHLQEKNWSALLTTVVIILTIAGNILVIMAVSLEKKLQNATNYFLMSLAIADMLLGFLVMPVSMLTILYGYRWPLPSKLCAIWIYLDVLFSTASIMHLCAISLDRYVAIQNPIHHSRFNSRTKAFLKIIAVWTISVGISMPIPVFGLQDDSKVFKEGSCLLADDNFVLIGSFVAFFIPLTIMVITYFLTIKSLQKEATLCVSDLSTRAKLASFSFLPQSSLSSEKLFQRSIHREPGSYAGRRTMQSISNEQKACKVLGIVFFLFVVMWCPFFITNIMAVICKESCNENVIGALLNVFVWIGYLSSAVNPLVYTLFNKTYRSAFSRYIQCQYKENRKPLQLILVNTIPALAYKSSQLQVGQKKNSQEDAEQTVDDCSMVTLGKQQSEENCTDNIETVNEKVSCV
Another assay addresses T3, D3 receptor (Homo sapiens, UniProt P35462).
T3 construct: expressed in transfected cells; host or cells: HEK-293
Nature of the assay: D3 receptor assay ([3H]-Spiperone, HEK-293 cells). The assay is classed as binding. Conditions: for inhibition at 10 µM: test compound final concentration 10 μmol/L, [3H]-Spiperone, HEK-293 cells, read-out: D3 Inhibition rate (%); for affinity with D3 (in words): summary of in vitro assay. As for the experimental part: Then the cells were centrifuged at 1000 rpm for 5 min, the supernatant was discarded, and the cell pellets was collected and stored in a −20° C. fridge for reservation. It was re-suspended with Tris-Cl (pH 7.4) when the assay was performed.
Tris was divided into aliquots by Genetimes Technology Inc.
Competitive binding test for receptors: 20 μl of each of the test compounds and 20 μl of the radioactive ligand together with 160 μl of the receptor proteins were added into the reaction tubes, and the final concentrations of the test compound and the positive drug were all 10 μmol/L. After 50 min of incubation in 30° C. water bath, the tubes were immediately moved to ice bath to terminate the reactions. GF/C glass fiber filter papers were used for rapid sucking filtration on a Millipore cell sample collector, 3 ml of elution buffer (50 mM Tris-HCl, PH 7.4) was applied for 3 times, and microwave was applied for 4-5 min for drying. The filter paper was moved into 0.5 ml centrifuge tube, and 500 μl of liposoluble scintillation cocktail was added. The tubes were allowed to stand still for over 30 min in dark, and the intensities of radioactivity were measured by a counter.

These results are taken from patent US10517862B2, “Fused heterocyclic compound derivative and application thereof” (NHWA PHARMA. CORPORATION, priority 2015, dated 2019).

The structures appear in SMILES notation.

T3 sequence (P35462 whole entry): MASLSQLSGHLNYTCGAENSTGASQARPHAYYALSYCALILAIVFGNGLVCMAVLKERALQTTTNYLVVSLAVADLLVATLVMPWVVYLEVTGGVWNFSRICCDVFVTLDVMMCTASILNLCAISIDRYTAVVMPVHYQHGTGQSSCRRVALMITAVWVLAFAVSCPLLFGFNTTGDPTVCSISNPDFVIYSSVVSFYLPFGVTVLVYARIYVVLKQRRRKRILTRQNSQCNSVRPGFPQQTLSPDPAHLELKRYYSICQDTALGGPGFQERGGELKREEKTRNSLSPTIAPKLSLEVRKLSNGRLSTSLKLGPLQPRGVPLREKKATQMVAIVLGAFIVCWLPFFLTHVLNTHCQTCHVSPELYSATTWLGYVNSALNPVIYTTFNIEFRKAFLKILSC
Sequence of Histamine H1 receptor (P31390 whole entry): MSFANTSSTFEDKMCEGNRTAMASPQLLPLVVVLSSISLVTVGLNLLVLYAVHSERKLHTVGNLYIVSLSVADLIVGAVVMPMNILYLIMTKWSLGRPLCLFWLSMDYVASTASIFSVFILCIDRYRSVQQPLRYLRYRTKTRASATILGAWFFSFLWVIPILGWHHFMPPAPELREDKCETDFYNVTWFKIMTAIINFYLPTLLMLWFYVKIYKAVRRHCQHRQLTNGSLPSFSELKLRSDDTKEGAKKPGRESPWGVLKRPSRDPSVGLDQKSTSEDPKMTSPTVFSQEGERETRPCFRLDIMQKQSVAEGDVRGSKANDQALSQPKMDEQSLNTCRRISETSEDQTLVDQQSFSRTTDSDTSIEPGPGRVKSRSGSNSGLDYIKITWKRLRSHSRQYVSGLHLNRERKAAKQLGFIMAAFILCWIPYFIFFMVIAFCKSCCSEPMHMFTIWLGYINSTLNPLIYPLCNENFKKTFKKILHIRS
Description for Histamine H1 receptor: The supernatant was discarded to give pellets, and homogenate F was added again to the pellets for washing. Centrifugation was conducted and repeated 3 times.
(2) 100 μL of membrane preparation was added into each reaction tube.

By inhibition is commonly meant the drop in the measured response relative to a control, in per cent. Regarding `O=C(CN1CCC(c2noc3cc(F)ccc23)CC1)c1cc2c3c(c1)CCC(=O)N3CCC2` [Compound 1], in assay [1], the “α1 Inhibition rate (%)” value was found to be 68.75%. Moreover, the inhibition at 10 µM on 5HT1A receptor worked out at 54.6%; at Histamine H1 receptor, 84.9%; on 5HT2C receptor it was 84.6%; on 5HT2A receptor it was 84.9%; at D3 receptor it was 60.9%. The “D2 Inhibition rate (%)” value with D2 receptor came out at 45.89%.

In the case of `O=C1CCc2cc(C(O)CCN3CCC(c4noc5cc(F)ccc45)CC3)cc3c2N1CCC3` (stereo not drawn) [Compound 3], in assay [1], the “α1 Inhibition rate (%)” value worked out at 51.42%. Moreover, the inhibition at 10 µM at 5HT1A receptor was 91.6%; at Histamine H1 receptor it was 42.5%; at 5HT2C receptor, 61.6%; on 5HT2A receptor, 92.5%; at D3 receptor it was 93.9%. For the same molecule, in the assay with D2 receptor, the “D2 Inhibition rate (%)” value is reported as 97.67%.

With `O=C1CCc2cc(CCCN3CCC(c4noc5cc(F)ccc45)CC3)cc3c2N1CCC3` [Compound 4], in assay [1], the “α1 Inhibition rate (%)” value was 60.91%. The inhibition at 10 µM at 5HT1A receptor is 88%; on Histamine H1 receptor it was 44%; on 5HT2C receptor it was 60%; on 5HT2A receptor, 94%; at D3 receptor, 92.5%. In the assay on D2 receptor, the “D2 Inhibition rate (%)” value was found to be 94.22%.

As to `O=C1CCc2cc(C(O)CCCN3CCC(c4noc5cc(F)ccc45)CC3)cc3c2N1CCC3` (stereo not drawn) [Compound 6], in assay [1], the “affinity with α1 (in words)” value is “low affinities” and the “α1 Inhibition rate (%)” value is 60.91%. Also, at 5HT1A receptor, the “affinity with 5HT1A (in words)” value is given as “high affinities” and the inhibition at 10 µM stood at 99.6%. Besides, in the assay on D2 receptor, the “affinity with D2 (in words)” value was “high affinities” and the “D2 Inhibition rate (%)” value is 98.48%. In addition, at Histamine H1 receptor, the inhibition at 10 µM was 49.1% and the “affinity with H1 (in words)” value was “low affinities”. At 5HT2C receptor, the “affinity with 5HT2C (in words)” value was “low affinities” and the inhibition at 10 µM is 61.6%. Besides, on 5HT2A receptor, the inhibition at 10 µM is 99.1% and the “affinity with 5HT2A (in words)” value is reported as “high affinities”. For the same molecule, on D3 receptor, the “affinity with D3 (in words)” value is on record as “high affinities” and the inhibition at 10 µM was determined as 98.5%.

Take `O=C(CCCCN1CCC(c2noc3cc(F)ccc23)CC1)c1cc2c3c(c1)CCC(=O)N3CCC2` [Compound 8]: in assay [1], the “α1 Inhibition rate (%)” value is given as 41.19%. The inhibition at 10 µM was 89.5% on 5HT1A receptor; 45.5% at Histamine H1 receptor; 59.5% at 5HT2C receptor; 93% at 5HT2A receptor; 72.4% at D3 receptor. Further, the “D2 Inhibition rate (%)” value in the assay on D2 receptor was found to be 90.17%.

In the case of `CC1CC(=O)N2CCCc3cc(C(=O)CCCN4CCC(c5noc6cc(F)ccc56)CC4)cc1c32` (stereo not drawn) [Compound 9], the “α1 Inhibition rate (%)” value in assay [1] stood at 66.62%. Further, the inhibition at 10 µM at 5HT1A receptor is 84%; at Histamine H1 receptor it was 46%; on 5HT2C receptor, 54%; on 5HT2A receptor, 90.2%; on D3 receptor it was 86%. Besides, in the assay with D2 receptor, the “D2 Inhibition rate (%)” value was 91.76%.

With `CC1CC(=O)N2CCCc3cc(CCCCN4CCC(c5noc6cc(F)ccc56)CC4)cc1c32` (stereo not drawn) [Compound 10], the “α1 Inhibition rate (%)” value in assay [1] is listed as 46.48%. Besides, the inhibition at 10 µM came to 82.9% on 5HT1A receptor; 43.9% on Histamine H1 receptor; 55.9% on 5HT2C receptor; 83.5% on 5HT2A receptor; 80.2% on D3 receptor. In the assay with D2 receptor, the “D2 Inhibition rate (%)” value is recorded as 85.88%.

For `O=C(CN1CCC(c2noc3cc(F)ccc23)CC1)c1cc2c3c(c1)CCN3C(=O)CC2` [Compound 11], the “α1 Inhibition rate (%)” value in assay [1] was 52.42%. For the same molecule, the inhibition at 10 µM at 5HT1A receptor is 58.6%; on Histamine H1 receptor, 84.9%; at 5HT2C receptor it was 84.6%; on 5HT2A receptor it was 74.9%; on D3 receptor, 83.5%. In the assay on D2 receptor, the “D2 Inhibition rate (%)” value stood at 55.89%.

Consider `O=C1CCc2cc(C(O)CCN3CCC(c4noc5cc(F)ccc45)CC3)cc3c2N1CC3` (stereo not drawn) [Compound 13], for which, in assay [1], the “affinity with α1 (in words)” value was “low affinities” and the “α1 Inhibition rate (%)” value turned out to be 53.75%. At 5HT1A receptor, the “affinity with 5HT1A (in words)” value is reported as “high affinities” and the inhibition at 10 µM came out at 93.6%. Further, in the assay with D2 receptor, the “affinity with D2 (in words)” value is given as “high affinities” and the “D2 Inhibition rate (%)” value was found to be 96.83%. For the same molecule, at Histamine H1 receptor, the inhibition at 10 µM was 46.9% and the “affinity with H1 (in words)” value was “low affinities”. Further, at 5HT2C receptor, the “affinity with 5HT2C (in words)” value is “low affinities” and the inhibition at 10 µM turned out to be 53.6%. Besides, on 5HT2A receptor, the inhibition at 10 µM turned out to be 96.9% and the “affinity with 5HT2A (in words)” value is reported as “high affinities”. Besides, at D3 receptor, the “affinity with D3 (in words)” value is “high affinities” and the inhibition at 10 µM turned out to be 94.4%.

Turning to `O=C1CCc2cc(CCCN3CCC(c4noc5cc(F)ccc45)CC3)cc3c2N1CC3` [Compound 14], in assay [1], the “affinity with α1 (in words)” value was “low affinities” and the “α1 Inhibition rate (%)” value stood at 50.91%. Further, on 5HT1A receptor, the “affinity with 5HT1A (in words)” value was “high affinities” and the inhibition at 10 µM worked out at 87%. Moreover, in the assay with D2 receptor, the “affinity with D2 (in words)” value is listed as “high affinities” and the “D2 Inhibition rate (%)” value amounted to 94.65%. At Histamine H1 receptor, the inhibition at 10 µM stood at 43.9% and the “affinity with H1 (in words)” value was “low affinities”. For the same molecule, at 5HT2C receptor, the “affinity with 5HT2C (in words)” value was “low affinities” and the inhibition at 10 µM turned out to be 57%. In addition, at 5HT2A receptor, the inhibition at 10 µM was determined as 93.9% and the “affinity with 5HT2A (in words)” value is “high affinities”. In addition, at D3 receptor, the “affinity with D3 (in words)” value is on record as “high affinities” and the inhibition at 10 µM turned out to be 96.9%.

With `O=C1CCc2cc(C(O)CCCN3CCC(c4noc5cc(F)ccc45)CC3)cc3c2N1CC3` (stereo not drawn) [Compound 16], in assay [1], the “affinity with α1 (in words)” value was “low affinities” and the “α1 Inhibition rate (%)” value is on record as 51.19%. On 5HT1A receptor, the “affinity with 5HT1A (in words)” value is “high affinities” and the inhibition at 10 µM was found to be 99.4%. In addition, in the assay on D2 receptor, the “affinity with D2 (in words)” value was “high affinities” and the “D2 Inhibition rate (%)” value turned out to be 98.34%. Besides, at Histamine H1 receptor, the inhibition at 10 µM came to 38.8% and the “affinity with H1 (in words)” value is recorded as “low affinities”. Besides, at 5HT2C receptor, the “affinity with 5HT2C (in words)” value was “low affinities” and the inhibition at 10 µM was 55.4%. Besides, at 5HT2A receptor, the inhibition at 10 µM worked out at 98.8% and the “affinity with 5HT2A (in words)” value is recorded as “high affinities”. On D3 receptor, the “affinity with D3 (in words)” value is on record as “high affinities” and the inhibition at 10 µM was 98.3%.
